We go through 8 compounds from patent US20260364080A1, “PYRAZOLO-PYRIMIDINONE COMPOUNDS FOR USE IN METHODS OF INHIBITING WEE1 A KINASE” (Acrivon Therapeutics, Inc., priority 2023, published 2026).

In test [1] the target is T1, Myt1 kinase (recombinant PMYT-1) (Homo sapiens, UniProt Q99640).
T1 construct: full length PMYT-1 was expressed by baculovirus in insect cells; purchased Invitrogen A30984; host or cells: insect cells (baculovirus)
T1 sequence (Q99640 1-499): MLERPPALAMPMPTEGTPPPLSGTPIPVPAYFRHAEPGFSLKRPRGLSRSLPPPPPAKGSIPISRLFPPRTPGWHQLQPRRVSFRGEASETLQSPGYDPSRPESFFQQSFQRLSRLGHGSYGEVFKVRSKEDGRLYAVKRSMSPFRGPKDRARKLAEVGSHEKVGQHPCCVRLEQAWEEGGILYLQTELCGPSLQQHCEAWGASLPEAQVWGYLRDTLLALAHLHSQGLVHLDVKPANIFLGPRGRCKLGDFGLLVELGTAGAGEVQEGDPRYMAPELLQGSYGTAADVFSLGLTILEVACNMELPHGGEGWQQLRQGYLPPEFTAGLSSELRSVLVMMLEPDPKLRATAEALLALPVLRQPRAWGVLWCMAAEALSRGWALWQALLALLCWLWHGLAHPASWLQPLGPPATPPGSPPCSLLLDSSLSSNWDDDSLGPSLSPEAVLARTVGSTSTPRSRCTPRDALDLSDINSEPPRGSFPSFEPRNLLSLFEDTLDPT
Kind of test: Myt1 kinase binding assay (LanthaScreen Eu Kinase Binding Assay). Particulars: 3 nM tracer 178, 2.5 nM PMYT-1, 1 nM Eu-labeled antibody; read-out: Myt1 kinase Binding IC50. Put shortly:
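The binding affinity of compounds for Myt1 kinase was measured with a LanthaScreen Europium (Eu) Kinase Binding Assay, a time-resolved FRET format in which test compounds compete against a labeled kinase tracer, and the results were expressed as IC50 values describing compound binding to Myt1.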
In general terms: In TR-FRET formats the signal depends on donor and acceptor labels being close together.

In test [2] the target is T2, Wee1A kinase (CDK1 Tyr15 phosphorylation in ACHN renal cell carcinoma cells) (Homo sapiens, UniProt P30291).
T2 construct: pCDK1 Tyr15 immunofluorescence read-out
Kind of test: High-content imaging of pCdk1 Y15, Wee1A kinase target engagement in ACHN cells. The test is classed as cell-based. The following applies: 4 h treatment, nuclear positivity for pCdk1 Y15 vs DMSO control, read-out: CDK1 Tyr15 Phosphorylation EC50. The essentials: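 ACHN cells exposed to compound for 4 h over 7–5,000 nM or 0.3–200 nM, then fixed and immunostained for pCDK1 Y15 with DAPI nuclear counterstain. The percentage of pCdk1 Y15 nucleus-positive cells relative to DMSO control was imaged per well; EC50 from dose-response curves.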

For test [3], the target named is T3, recombinant human Wee1A kinase (Homo sapiens, UniProt P30291).
T3 construct: full length Wee1 kinase was expressed by baculovirus in insect cells; purchased Invitrogen PV3817; host or cells: insect cells (baculovirus)
Kind of test: Wee1A kinase binding assay (LanthaScreen Eu time-resolved FRET). The following applies: 30 nM tracer 178, 5 nM Wee1A kinase, 2 nM Eu-labeled antibody; 60 minutes at room temperature; read-out: Wee1A kinase Binding IC50. Put shortly: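 Full-length, baculovirus-expressed GST-tagged Wee1A (5 nM) was mixed with 2 nM Eu-anti-GST antibody, 30 nM kinase tracer 178 and compound (1% DMSO). Buffer was 50 mM HEPES pH 7.5, 10 mM MgCl2, 1 mM EGTA, 0.01% Brij-35, incubated 60 min at room temperature. TR-FRET 665/615 nm emission ratios from duplicates were curve-fitted.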

Test [4] concerns ACHN cells. Kind of test: Cell Titer Glo viability assay, ACHN cells. The test is classed as cell-based. The following applies: Homo sapiens, 144 h, absolute EC50. Put shortly:
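Cells grown in MEM with 10% FCS were seeded at 500 (A427), 400 (ACHN) or 250 (DAOY) per well and treated the next day with compound at 17 to 10 000 nM. Viability relative to untreated control was read at 144 h by CellTiter-Glo 2.0.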
Background: ATP-based viability assays read luminescence as a measure of living cells.

For test [5], the target named is T4, Myt1 kinase (CDK1 Thr14 phosphorylation in ACHN renal cell carcinoma cells) (Homo sapiens, UniProt Q99640).
T4 construct: pCDK1 Thr14 AlphaLISA read-out
T4 sequence (Q99640 1-499): T1 sequence (Q99640 1-499)
Kind of test: AlphaLISA assay, Myt1 kinase target engagement (phospho-CDK1 Thr14) in ACHN cells. The test is classed as cell-based. Particulars: ACHN cells (marked *); 4 h treatment. As to the method: Each of an ACHN renal cell carcinoma cell line (ATCC) and a DAOY medulloblastoma cell line, and an A427 lung cancer line were cultured in Minimum Essential Medium Eagle supplemented with 10% fetal calf serum (Sigma), 1% Penicillin-Streptomycin and 10 mM HEPES buffer (HyClone). Cell cultures were kept in a humidified incubator at 37 °C and 5% CO2. Cells were routinely tested for Mycoplasma contamination.
For target engagement assessment of Myt1 kinase inhibition, quantification of Cdk1 phosphorylated on threonine 14 was detected using the AlphaLISA® SureFire® Ultra™ Human Phospho-CDK1 (Thr14) assay (Perkin Elmer). DAOY or ACHN cells were seeded into tissue culture treated 96-well plates (VWR) to a density of 10,000 or 20,000 cells per well respectively. 24 h post seeding cells were treated for 4 h with compounds at concentrations ranging from 7 to 5000 nM. Cells were washed with PBS and lysed in 50 μl AlphaLISA lysis buffer before freezing at −80 C. Ten ul of the lysate was transferred to 384 well plates and incubated with AlphaLISA donor and acceptor beads according to the manufacturer's instructions. Dose response curves and EC50 values were calculated and visualized using GraphPad Prism version 9. Target engagement for Myt1 kinase can also be measured using the same AlphaLISA assay in OVCAR3 cells, an ovarian cancer cell line. NIH:OVCAR-3 (OVCAR3) cells are cultured in RPMI-1640 medium supplemented with 0.01 mg/ml insulin, 20% FBS, 1% Penicillin-Streptomycin and 10 mM HEPES buffer. 14,000 cells per well are seeded into 96 well tissue culture plates in full medium. Twenty-four hours post seeding, cells are treated with compound for 4 hours at concentrations ranging from 0.017 nM to 1000 nM.
A general note: Alpha assays give light when donor and acceptor beads are brought close together.

T3 sequence (P30291 whole entry): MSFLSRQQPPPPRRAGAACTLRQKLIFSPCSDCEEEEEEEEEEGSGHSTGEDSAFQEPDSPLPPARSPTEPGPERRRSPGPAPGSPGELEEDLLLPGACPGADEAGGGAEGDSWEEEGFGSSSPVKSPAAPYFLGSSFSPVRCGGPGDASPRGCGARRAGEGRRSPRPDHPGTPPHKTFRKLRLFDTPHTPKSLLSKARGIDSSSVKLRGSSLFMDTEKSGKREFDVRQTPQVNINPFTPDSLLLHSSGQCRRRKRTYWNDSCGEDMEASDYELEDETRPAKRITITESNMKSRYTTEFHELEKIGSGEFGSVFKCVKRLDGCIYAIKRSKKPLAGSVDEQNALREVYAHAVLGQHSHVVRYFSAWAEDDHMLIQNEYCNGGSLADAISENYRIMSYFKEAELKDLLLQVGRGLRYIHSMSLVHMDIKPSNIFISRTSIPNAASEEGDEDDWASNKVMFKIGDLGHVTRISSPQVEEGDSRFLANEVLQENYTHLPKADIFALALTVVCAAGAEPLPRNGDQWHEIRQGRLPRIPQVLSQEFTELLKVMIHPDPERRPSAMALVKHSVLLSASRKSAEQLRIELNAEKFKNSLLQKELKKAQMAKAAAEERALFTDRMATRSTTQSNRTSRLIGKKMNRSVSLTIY
T2 sequence (P30291 whole entry): as above

One may read the IC50 as the concentration that gives 50% inhibition. In general, EC50 refers to the concentration that produces a half-maximal response. As to `C=CCn1c(=O)c2cnc(Nc3ccc4c(cnn4CC(C)C)c3)nc2n1-c1cccc(OC2CCN(C)CC2)n1` [Compound 394, 2-allyl-6-((1-isobutyl-1H-indazol-5-yl)amino)-1-(6-((1-methylpiperidin-4-yl)oxy)pyridin-2-yl)-1,2-dihydro-3H-pyrazolo[3,4-d]pyrimidin-3-one], the 50% inhibitory concentration (IC50) in test [1] was < 20 nM; in test [3] it was < 10 nM. Also, the results for the EC50 in test [2], in test [4] and in test [5] were < 100 nM, ≤ 100 nM and < 200 nM, respectively.
For `C=CCn1c(=O)c2cnc(Nc3ccc4c(ccn4C(C)=O)c3)nc2n1-c1cccc(OC2CCNCC2)n1` [Compound 384] the same measures were 20 to 100 nM, < 10 nM, < 100 nM, ≤ 100 nM and > 1000 nM.
The like results for `C=CCn1c(=O)c2cnc(Nc3ccc4c(c3)c(C)nn4C)nc2n1-c1cccc(OC2CCN(C)CC2)n1` [Compound 346, 2-allyl-6-((1,3-dimethyl-1H-indazol-5-yl)amino)-1-(6-((1-methylpiperidin-4-yl)oxy)pyridin-2-yl)-1,2-dihydro-3H-pyrazolo[3,4-d]pyrimidin-3-one] were, in that order, 20 to 100 nM, < 10 nM, < 100 nM, ≤ 100 nM and 200 to 500 nM.
Turning to `C=CCn1c(=O)c2cnc(Nc3ccc4c(cnn4C)c3)nc2n1-c1cccc(NC2CCN(C)CC2)n1` [Compound 129, 6-[(1-methyl-1H-indazol-5-yl)amino]-1-{6-[(1-methylpiperidin-4-yl)amino]pyridin-2-yl}-2-(prop-2-en-1-yl)-1H,2H,3H-pyrazolo[3,4-d]pyrimidin-3-one], the IC50 in test [1] was 100 to 500 nM; in test [3], < 10 nM. The figures for the EC50 in test [2], in test [4] and in test [5] were < 100 nM, ≤ 100 nM and > 1000 nM, respectively.
Consider `C=CCn1c(=O)c2cnc(Nc3ccc4c(ccn4C(C)=O)c3)nc2n1-c1cccc(OC2CCN(C)CC2)n1` [Compound 392, 6-((1-acetyl-1H-indol-5-yl)amino)-2-allyl-1-(6-((1-methylpiperidin-4-yl)oxy)pyridin-2-yl)-1,2-dihydro-3H-pyrazolo[3,4-d]pyrimidin-3-one], for which the IC50 is 20 to 100 nM in test [1] and < 10 nM in test [3]. The EC50 in test [2] is < 100 nM; in test [4], ≤ 100 nM; in test [5] it was < 200 nM.
The like results for `C=CCn1c(=O)c2cnc(Nc3ccc4nn(CC)cc4c3)nc2n1-c1cccc(OC2CCN(C)CC2)n1` [Compound 282, 2-allyl-6-((2-ethyl-2H-indazol-5-yl)amino)-1-(6-((1-methylpiperidin-4-yl)oxy)pyridin-2-yl)-1,2-dihydro-3H-pyrazolo[3,4-d]pyrimidin-3-one] were, in that order, < 20 nM, < 10 nM, < 100 nM, ≤ 100 nM and < 200 nM.
Consider `C=CCn1c(=O)c2cnc(Nc3ccc4c(c3)ncn4C(C)C)nc2n1-c1cccc(OC2CCN(C)CC2)n1` [Compound 400, 2-allyl-6-((1-isopropyl-1H-benzo[d]imidazol-5-yl)amino)-1-(6-((1-methylpiperidin-4-yl)oxy)pyridin-2-yl)-1,2-dihydro-3H-pyrazolo[3,4-d]pyrimidin-3-one], for which the IC50 in test [1] was < 20 nM; in test [3] it was < 10 nM. Further, the EC50 in test [2] is < 100 nM; in test [4], ≤ 100 nM; in test [5] it was 200 to 500 nM.
For `C=CCn1c(=O)c2cnc(Nc3ccc4c(cnn4CC)c3)nc2n1-c1cccc(OC2CCNCC2)n1` [Compound 280, 2-allyl-6-((1-ethyl-1H-indazol-5-yl)amino)-1-(6-(piperidin-4-yloxy)pyridin-2-yl)-1,2-dihydro-3H-pyrazolo[3,4-d]pyrimidin-3-one] the same measures were < 20 nM, < 10 nM, < 100 nM, ≤ 100 nM and 200 to 500 nM.
